Test results from patent US10350271B2, “Lipidated peptides for lowering blood glucose” (USTAV ORGANICKE CHEMIE A BIOCHEMIE AKADEMIE VED CR, V.V.I., priority 2014, dated 2019).
Square brackets hold non-standard residues; d marks the D form. Peptide text beside a SMILES is read from it. * marks the point of attachment. Phe(4-NO2) = N[C@@H](Cc1ccc([N+](=O)[O-])cc1)C(=O)O; Phe(3,4-Cl2) = N[C@@H](Cc1ccc(Cl)c(Cl)c1)C(=O)O; Phe(F5) = N[C@@H](Cc1c(F)c(F)c(F)c(F)c1F)C(=O)O; Myristoyl = CCCCCCCCCCCCCC(=O)*; Nle = CCCC[C@H](N)C(=O)O; Sar = CNCC(=O)O

Key:
[1] = molecular target: T1, human PrRP receptor GPR10 (Homo sapiens, UniProt P49683); test: Competitive binding in CHO cells transfected with human GPR10 (human 125I-PrRP31); conditions: for Ki: CHO cells, human 125I-PrRP31, read-out: Ki, GPR10 human receptor transfected in CHO cells; for % of PrRP31, GPR10 human receptor transfected in CHO cells: affinity relative to PrRP31
T1 construct: host or cells: CHO cells
T1 sequence (P49683 1-370): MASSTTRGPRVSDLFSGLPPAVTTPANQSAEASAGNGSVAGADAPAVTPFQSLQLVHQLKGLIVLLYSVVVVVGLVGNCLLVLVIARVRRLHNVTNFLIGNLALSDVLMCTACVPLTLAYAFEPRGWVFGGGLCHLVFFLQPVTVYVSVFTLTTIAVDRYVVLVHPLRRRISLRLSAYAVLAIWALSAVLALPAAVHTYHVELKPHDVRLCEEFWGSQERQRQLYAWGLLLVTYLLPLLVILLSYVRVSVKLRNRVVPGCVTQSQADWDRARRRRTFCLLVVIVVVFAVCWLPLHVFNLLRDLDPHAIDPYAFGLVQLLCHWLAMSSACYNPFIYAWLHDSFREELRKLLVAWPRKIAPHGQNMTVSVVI
Experimental: (§1) Competitive binding experiments were performed according to Motulsky and Neubig (Motulsky, A., et al., “Analyzing radioligand binding data,” Curr Protoc Neurosci, Chapter 7, Unit 7.5, 2002). Binding experiments were conducted with rat pituitary cells, and with Chinese Hamster Ovary (CHO) cells as follows:
CHO cells transfected with human PrRP receptor GPR10 (Perkin Elmer, USA) were grown on 24-well plates coated with polyethyleneimine. The cells were grown to the optimal density of 40-80 thousand cells per well. The following agents were used for the experiment: binding buffer (25 mmol·l^−1 Tris, pH 7.4; 118 mmol·l^−1 NaCl, 10 mmol·l^−1 MgCl2, 10 mmol·l^−1 CaCl2, 5.5 mmol·l^−1 glucose, 0.5 mg/ml BSA), unlabeled analogs of PrRP (i.e. the analog being tested) at a final concentration between 10^−11 to 10^−4 mol·l^−1, and radiolabeled human ^125I-PrRP31 at a final concentration of 5×10^−11 mol·l^−1.
(§2) Plates were incubated for 60 minutes at room temperature. After incubation, the cells were solubilized in 0.1 mol/l solution of NaOH, and the radioactivity bound to the cells was counted using a γ-counter. The experiments were performed in duplicate, and repeated at least three times.
(§3) Graph Pad Prism Software (San Diego, Calif., USA) was used for evaluating the competitive binding experiments. Nonlinear regression was performed using a onsite binding model.

rat PrRP receptor = molecular target: T2, rat PrRP receptor (Rattus norvegicus, UniProt Q64121); test: Competitive binding in RC-4B/C rat pituitary cells (125I-rat PrRP31); conditions: for Ki: RC-4B/C cells, displacement of 125I-rat PrRP31, read-out: Ki, RC-4B/C rat pituitary cells ^25I-rat PrRP31; for % of PrRP31, RC-4B/C rat pituitary cells: affinity relative to PrRP31
T2 construct: host or cells: RC-4B/C rat pituitary cell line
T2 sequence (Q64121 1-370): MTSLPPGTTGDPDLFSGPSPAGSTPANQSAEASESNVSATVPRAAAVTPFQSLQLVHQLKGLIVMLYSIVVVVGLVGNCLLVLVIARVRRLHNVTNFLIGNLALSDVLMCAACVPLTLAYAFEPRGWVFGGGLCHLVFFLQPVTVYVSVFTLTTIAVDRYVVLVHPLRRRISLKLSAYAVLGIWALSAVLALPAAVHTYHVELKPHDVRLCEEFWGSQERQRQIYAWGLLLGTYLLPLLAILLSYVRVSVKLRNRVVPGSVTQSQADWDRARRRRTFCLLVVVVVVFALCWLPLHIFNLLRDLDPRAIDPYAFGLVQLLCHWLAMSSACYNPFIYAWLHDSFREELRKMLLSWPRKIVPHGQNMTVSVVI
Experimental: as §1
The rat pituitary cell line RC-4B/C (ATCC, Manassas, USA) was grown on 24-well plates which had their bottom coated with polyethyleneimine. The cells were grown to the optimal density of 300-450 thousand cells per well. The following agents were used for the experiment: binding buffer (20 mmol·l^−1 HEPES, Ph 7.4; 118 mmol·l^−1 NaCl, 4.7 mmol·l^−1 KCl, 5 mmol·l^−1 MgCl2, 5.5 mmol·l^−1 glucose, 1 mg/ml BSA, 0.1 BPTI), unlabeled analogs of PrRP (i.e. the analog being tested) at a final concentration between 10^−11 to 10^−4 mol·l^−1, and rat ^125I-PrRP31 (labeled with radioactive Iodine-125) at a final concentration of […] (Maixnerová et al., 2011).
as §2, §3

Ki [1] [nM]	% of PrRP31, GPR10 human receptor transfected in CHO cells [1] [%]	Ki (rat PrRP receptor) [nM]	% of PrRP31, RC-4B/C rat pituitary cells (rat PrRP receptor) [%]	SMILES
2.27 ± 0.48	171	3.84 ± 0.93	128	CCCC[C@H](NC(=O)[C@H](CO)NC(=O)[C@H](Cc1c[nH]cn1)NC(=O)[C@H](CCC(N)=O)NC(=O)[C@H](Cc1c[nH]cn1)NC(=O)[C@H](C)NC(=O)[C@H](CCCNC(=N)N)NC(=O)[C@@H](N)CO)C(=O)N[C@@H](CCC(=O)O)C(=O)N[C@H](C(=O)N[C@@H](CCCNC(=N)N)C(=O)N[C@H](C(=O)N1CCC[C@H]1C(=O)N[C@@H](CC(=O)O)C(=O)N[C@H](C(=O)N[C@@H](CC(N)=O)C(=O)N1CCC[C@H]1C(=O)N[C@@H](C)C(=O)N[C@@H](Cc1c[nH]c2ccccc12)C(=O)N[C@@H](Cc1ccc(O)cc1)C(=O)N[C@H](C(=O)NCC(=O)N[C@@H](CCCNC(=N)N)C(=O)NCC(=O)N[C@H](C(=O)N[C@@H](CCCNC(=N)N)C(=O)N1CCC[C@H]1C(=O)N[C@H](C(=O)NCC(=O)N[C@@H](CCCNC(=N)N)C(=O)N[C@@H](Cc1ccc(Cl)c(Cl)c1)C(N)=O)C(C)C)[C@@H](C)CC)[C@@H](C)O)[C@@H](C)CC)[C@@H](C)O)[C@@H](C)O [Analog 13] (H-SRAHQHS[Nle]ETRTPDINPAWYTGRGIRPVGR[Phe(3,4-Cl2)]-NH2; N-terminus assumed)
1.59 ± 1.05	245	1.97 ± 1.26	250	CCCCCCCCCCCCCC(=O)N[C@@H](CO)C(=O)N[C@@H](CCCNC(=N)N)C(=O)N[C@@H](C)C(=O)N[C@@H](Cc1c[nH]cn1)C(=O)N[C@@H](CCC(N)=O)C(=O)N[C@@H](Cc1c[nH]cn1)C(=O)N[C@@H](CO)C(=O)N[C@@H](CCCC)C(=O)N[C@@H](CCC(=O)O)C(=O)N[C@H](C(=O)N[C@@H](CCCNC(=N)N)C(=O)N[C@H](C(=O)N1CCC[C@H]1C(=O)N[C@@H](CC(=O)O)C(=O)N[C@H](C(=O)N[C@@H](CC(N)=O)C(=O)N1CCC[C@H]1C(=O)N[C@@H](C)C(=O)N[C@@H](Cc1c[nH]c2ccccc12)C(=O)N[C@@H](Cc1ccc(O)cc1)C(=O)N[C@H](C(=O)NCC(=O)N[C@@H](CCCNC(=N)N)C(=O)NCC(=O)N[C@H](C(=O)N[C@@H](CCCNC(=N)N)C(=O)N1CCC[C@H]1C(=O)N[C@H](C(=O)NCC(=O)N[C@@H](CCCNC(=N)N)C(=O)N[C@@H](Cc1ccc([N+](=O)[O-])cc1)C(N)=O)C(C)C)[C@@H](C)CC)[C@@H](C)O)[C@@H](C)CC)[C@@H](C)O)[C@@H](C)O [Analog 17] (Myristoyl-SRAHQHS[Nle]ETRTPDINPAWYTGRGIRPVGR[Phe(4-NO2)]-NH2)
	45		51	CCCC[C@H](NC(=O)[C@H](CO)NC(=O)[C@H](Cc1c[nH]cn1)NC(=O)[C@H](CCC(N)=O)NC(=O)[C@H](Cc1c[nH]cn1)NC(=O)[C@H](C)NC(=O)[C@H](CCCNC(=N)N)NC(=O)[C@@H](N)CO)C(=O)N[C@@H](CCC(=O)O)C(=O)N[C@H](C(=O)N[C@@H](CCCNC(=N)N)C(=O)N[C@H](C(=O)N1CCC[C@H]1C(=O)N[C@@H](CC(=O)O)C(=O)N[C@H](C(=O)N[C@@H](CC(N)=O)C(=O)N1CCC[C@H]1C(=O)N[C@@H](C)C(=O)N[C@@H](Cc1c[nH]c2ccccc12)C(=O)N[C@@H](Cc1ccc(O)cc1)C(=O)N[C@H](C(=O)NCC(=O)N[C@@H](CCCNC(=N)N)C(=O)NCC(=O)N[C@H](C(=O)N[C@@H](CCCNC(=N)N)C(=O)N1CCC[C@H]1C(=O)N[C@H](C(=O)NCC(=O)N[C@@H](CCCNC(=N)N)C(=O)N[C@@H](Cc1c(F)c(F)c(F)c(F)c1F)C(N)=O)C(C)C)[C@@H](C)CC)[C@@H](C)O)[C@@H](C)CC)[C@@H](C)O)[C@@H](C)O [Analog 21] (H-SRAHQHS[Nle]ETRTPDINPAWYTGRGIRPVGR[Phe(F5)]-NH2)

The remaining lines, values behind:

SMILES	Ki [1] [nM]	% of PrRP31, GPR10 human receptor transfected in CHO cells [1] [%]	Ki (rat PrRP receptor) [nM]	% of PrRP31, RC-4B/C rat pituitary cells (rat PrRP receptor) [%]
CCCC[C@H](NC(=O)[C@H](CO)NC(=O)[C@H](Cc1c[nH]cn1)NC(=O)[C@H](CCC(N)=O)NC(=O)[C@H](Cc1c[nH]cn1)NC(=O)[C@H](C)NC(=O)[C@H](CCCNC(=N)N)NC(=O)[C@@H](N)CO)C(=O)N[C@@H](CCC(=O)O)C(=O)N[C@H](C(=O)N[C@@H](CCCNC(=N)N)C(=O)N[C@H](C(=O)N1CCC[C@H]1C(=O)N[C@@H](CC(=O)O)C(=O)N[C@H](C(=O)N[C@@H](CC(N)=O)C(=O)N1CCC[C@H]1C(=O)N[C@@H](C)C(=O)N[C@@H](Cc1c[nH]c2ccccc12)C(=O)N[C@@H](Cc1ccc(O)cc1)C(=O)N[C@H](C(=O)NCC(=O)N[C@@H](CCCNC(=N)N)C(=O)NCC(=O)N[C@H](C(=O)N[C@@H](CCCNC(=N)N)C(=O)N1CCC[C@H]1C(=O)N[C@H](C(=O)NCC(=O)N[C@@H](CCCNC(=N)N)C(=O)N[C@@H](Cc1ccc([N+](=O)[O-])cc1)C(N)=O)C(C)C)[C@@H](C)CC)[C@@H](C)O)[C@@H](C)CC)[C@@H](C)O)[C@@H](C)O [Analog 16] (H-SRAHQHS[Nle]ETRTPDINPAWYTGRGIRPVGR[Phe(4-NO2)]-NH2; N-terminus assumed)	4.8 ± 0.88	81	19.9 ± 5.9	2.5
CCCC[C@H](NC(=O)[C@H](CO)NC(=O)[C@H](Cc1c[nH]cn1)NC(=O)[C@H](CCC(N)=O)NC(=O)[C@H](Cc1c[nH]cn1)NC(=O)[C@H](C)NC(=O)[C@H](CCCNC(=N)N)NC(=O)[C@@H](N)CO)C(=O)N[C@@H](CCC(=O)O)C(=O)N[C@H](C(=O)N[C@@H](CCCNC(=N)N)C(=O)N[C@H](C(=O)N1CCC[C@H]1C(=O)N[C@@H](CC(=O)O)C(=O)N[C@H](C(=O)N[C@@H](CC(N)=O)C(=O)N1CCC[C@H]1C(=O)N[C@@H](C)C(=O)N[C@@H](Cc1c[nH]c2ccccc12)C(=O)N[C@@H](Cc1ccc(O)cc1)C(=O)N[C@H](C(=O)NCC(=O)N[C@@H](CCCNC(=N)N)C(=O)NCC(=O)N[C@H](C(=O)N[C@@H](CCCNC(=N)N)C(=O)N1CCC[C@H]1C(=O)N[C@H](C(=O)NCC(=O)N[C@@H](CCCNC(=N)N)C(=O)N[C@@H](Cc1ccc(O)cc1)C(N)=O)C(C)C)[C@@H](C)CC)[C@@H](C)O)[C@@H](C)CC)[C@@H](C)O)[C@@H](C)O [Analog 23] (H-SRAHQHS[Nle]ETRTPDINPAWYTGRGIRPVGRY-NH2)		193		152
CC[C@H](C)[C@H](NC(=O)CN(C)C(=O)[C@H](CCCNC(=N)N)NC(=O)CNC(=O)[C@@H](NC(=O)[C@H](Cc1ccc(O)cc1)NC(=O)[C@H](Cc1c[nH]c2ccccc12)NC(=O)[C@H](C)NC(=O)[C@@H]1CCCN1C(=O)[C@H](CC(N)=O)NC(=O)[C@@H](NC(=O)[C@H](CC(=O)O)NC(=O)[C@@H]1CCCN1C(=O)[C@@H](N)[C@@H](C)O)[C@@H](C)CC)[C@@H](C)O)C(=O)N[C@@H](CCCNC(=N)N)C(=O)N1CCC[C@H]1C(=O)N[C@H](C(=O)NCC(=O)N[C@@H](CCCNC(=N)N)C(=O)N[C@@H](Cc1ccccc1)C(N)=O)C(C)C [Analog 27] (H-TPDINPAWYTGR[Sar]IRPVGRF-NH2)		86		62
